This passage reports IC50 results from ChEMBL document CHEMBL1781978, “A highly conjugated dihydroxylated C28 steroid from a myxobacterium” (J Nat Prod, 2011).

The test system of the assay is SW480. Nature of the assay: Cytotoxicity against human SW480 cells by MTT assay. Type of assay: functional, cell-based. In general terms: Tetrazolium dyes change colour on reduction, which living cells bring about.

As for `CC(C)[C@@H](C)/C=C/[C@@H](C)[C@H]1CCC2=C3C=CC4=CC(=O)CC[C@]4(C)[C@@]3(O)[C@H](O)C[C@@]21C`, the IC50 stood at 10 µM.

The IC50 is the point on the concentration scale where inhibition reaches its midpoint. Low readings indicate inhibition by little substance, high ones a need for much substance.
